Laboratory results published in patent US7132504B2, “Hepatitis C virus inhibitors” (Bristol-Myers Squibb Company, priority 2003, dated 2006).
pIC50: −log10 of the molar value.

Columns and labels:
[1] = target: T1, HCV NS3/4A protease complex (UniProt P27958, C1454S/C1711G, species not given); assay: Recombinant HCV NS3/4A protease complex FRET peptide assay (strain not stated); format: biochemical; settings: NS3/4A protease enzyme assay, read-out: Activity Range IC50
T1 construct: fused on or other part: Three-lysine solubilising tail at the C-terminus of NS4A
From the text: The purpose of this in vitro assay was to measure the inhibition of HCV NS3 protease complexes, derived from the BMS strain, H77 strain or J416S strain, as described below, by compounds of the present invention. This assay provides an indication of how effective compounds of the present invention would be in inhibiting HCV proteolytic activity.
Serum from an HCV-infected patient was obtained from Dr. T. Wright, San Francisco Hospital. An engineered full-length cDNA (compliment deoxyribonucleic acid) template of the HCV genome (BMS strain) was constructed from DNA fragments obtained by reverse transcription-PCR (RT-PCR) of serum RNA (ribonucleic acid) and using primers selected on the basis of homology between other genotype 1a strains. From the determination of the entire genome sequence, a genotype 1a was assigned to the HCV isolate according to the classification of Simmonds et al. (See P Simmonds, K A Rose, S Graham, S W Chan, F McOmish, B C Dow, E A Follett, P L Yap and H Marsden, J. Clin. Microbiol., 31(6), 1493–1503 (1993)). […] The infectious clones, H77 (1a genotype) and J4L6S (1b genotype) were obtained from R. Purcell (NIH) and the sequences are published in Genbank (AAB67036, see Yanagi, M., Purcell, R. H., Emerson, S. U. and Bukh, J. Proc. Natl. Acad. Sci. U.S.A. 94(16), 8738–8743 (1997); AF054247, see Yanagi, M., St Claire, M., Shapiro, M., Emerson, S. U., Purcell, R. H. and Bukh, J, Virology 244 (1), 161–172. (1998)).
The H77 and J4L6S strains were used for production of recombinant NS3/4A protease complexes. DNA encoding the recombinant HCV NS3/4A protease complex (amino acids 1027 to 1711) for these strains were manipulated as described by P. Gallinari et al. (see Gallinari P, Paolini C, Brennan D, Nardi C, Steinkuhler C, De Francesco R. Biochemistry. 38(17):5620–32, (1999)). Briefly, a three-lysine solubilizing tail was added at the 3′-end of the NS4A coding region. The cysteine in the P1 position of the NS4A–NS4B cleavage site (amino acid 1711) was changed to a glycine to avoid the proteolytic cleavage of the lysine tag. Furthermore, a cysteine to serine mutation was introduced by PCR at amino acid position 1454 to prevent the autolytic cleavage in the NS3 helicase domain. The variant DNA fragment was cloned in the pET21b bacterial expression vector (Novagen) and the NS3/4A complex was expressed in Escherichia. coli strain BL21 (DE3) (Invitrogen) following the protocol described by P. Gallinari et al. (see Gallinari P, Brennan D, Nardi C, Brunetti M, Tomei L, Steinkuhler C, De Francesco R., J Virol. 72(8):6758–69 (1998)) with modifications. Briefly, the NS3/4A protease complex expression was induced with 0.5 millimolar (mM) Isopropyl β-D-1-thiogalactopyranoside (IPTG) for 22 hours (h) at 20° C. A typical fermentation (1 Liter (L)) yielded approximately 10 grams (g) of wet cell paste. The cells were resuspended in lysis buffer (10 mL/g) consisting of 25 mM N-(2-Hydroxyethyl)Piperazine-N′-(2-Ethane Sulfonic acid) (HEPES), pH 7.5, 20% glycerol, 500 mM Sodium Chloride (NaCl), 0.5% Triton X-100, 1 microgram/milliliter (“μg/mL”) lysozyme, 5 mM Magnesium Chloride (MgCl2), 1 μg/ml Dnasel, 5 mM β-Mercaptoethanol (βME), Protease inhibitor—Ethylenediamine Tetraacetic acid (EDTA) free (Roche), homogenized and incubated for 20 minutes (min) at 4° C. The homogenate was sonicated and clarified by ultra-centrifugation at 235000 g for 1 h at 4° C. Imidazole was added to the supernatant to a final concentration of 15 mM and the pH adjusted to 8.0. The crude protein extract was loaded on a Nickel—Nitrilotriacetic acid (Ni-NTA) column pre-equilibrated with buffer B (25 mM HEPES, pH 8.0, 20% glycerol, 500 mM NaCl, 0.5% Triton X-100, 15 mM imidazole, 5 mM βME). The sample was loaded at a flow rate of 1 mL/min. The column was washed with 15 column volumes of buffer C (same as buffer B except with 0.2% Triton X-100). The protein was eluted with 5 column volumes of buffer D (same as buffer C except with 200 mM Imidazole). […]

[2] = target: T2, human neutrophil elastase (HNE) (Homo sapiens, UniProt P08246); assay: Specificity assay, human neutrophil elastase; format: biochemical; settings: 2 h enzyme-inhibitor pre-incubation
T2 construct: purchased Sigma
T2 sequence (P08246 30-267): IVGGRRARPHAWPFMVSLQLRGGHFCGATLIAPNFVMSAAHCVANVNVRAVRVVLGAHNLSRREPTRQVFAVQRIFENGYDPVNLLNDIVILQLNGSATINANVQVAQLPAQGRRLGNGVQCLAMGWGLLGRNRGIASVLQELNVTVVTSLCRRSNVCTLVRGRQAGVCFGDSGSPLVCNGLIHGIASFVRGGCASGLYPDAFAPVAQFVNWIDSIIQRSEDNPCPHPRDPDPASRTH
Description: The specificities of compounds of the present invention were determined against a variety of serine proteases: human neutrophil elastase (HNE), porcine pancreatic elastase (PPE) and human pancreatic chymotrypsin and one cysteine protease: human liver cathepsin B. In all cases a 96-well plate format protocol using colorimetric p-nitroaniline (pNA) substrate specific for each enzyme was used as described previously (PCT Patent Application No. WO 00/09543) with some modifications to the serine protease assays. All enzymes were purchased from Sigma while the substrates were from Bachem.
Each assay included a 2 h enzyme-inhibitor pre-incubation at room temperature followed by addition of substrate and hydrolysis to ˜30% conversion as measured on a Spectramax Pro microplate reader. Compound concentrations varied from 100 to 0.4 μM depending on their potency. […]
The percentage of inhibition was calculated using the formula: [1−((UVinh−UVblank)/(UVctl−UVblank))]×100 […]

Work on `C=CC1C[C@]1(NC(=O)[C@@H]1C[C@@H](Oc2cc(-c3ccccc3)nc3cc(OC)ccc23)CN1C(=O)[C@@H](NC(=O)OC)C(C)(C)C)C(=O)NS(=O)(=O)N(C)Cc1ccccc1` (some centres unmarked) [Compound 9] yielded a pIC50 [1] of over 6.82 and a pIC50 [2] of 4.34.
